The source of these data is publication PMC4830886, “Extended evaluation on the ES-D3 cell differentiation assay combined with the BeWo transport model, to predict relative developmental toxicity of triazole compounds” (Archives of Toxicology, 2015).

As usually defined, the Papp is a coefficient for how fast a substance crosses the barrier. Higher therefore signals ready permeation.

A short description of data set [1]: in vitro BeWo transport model (placental transfer). As to conditions: human. The method, then:
(§1) To study placental transfer of test compounds, BeWo transport experiments were performed as described previously (Li et al. [2013]). Briefly, BeWo b30 cells (passages 27–45) were cultured in DMEM (Zwijndrecht, The Netherlands), supplemented with 10 % (v/v) heat-inactivated FCS (HyClone-Perbio, Etten-Leur, The Netherlands), 10,000 U/ml penicillin, 10 mg/ml streptomycin and 2 mM L-glutamine. The cells were seeded at a density of 1 × 10^5 cells/cm^2 on transwell® polycarbonate membranes (12 mm diameter, 0.4 μm pore size) (VWR International BV, Amsterdam, The Netherlands) coated with human placental collagen. The medium (0.5-ml apical compartment, 1.5-ml basolateral compartment) was replaced daily. At day 6 postseeding, the BeWo b30 cell layers were used for transport experiments. The barrier-forming capacity of the BeWo cell layers was evaluated by measuring the transepithelial electrical resistance (TEER) of the cell monolayer using a Millicell ERS-2 Volt-Ohm Meter (Millipore, USA) at day 6 postseeding as described previously (Li et al. [2013]). Only the cell layers showing TEER values between 80 and 100 Ω cm^2 were used for transport experiments.
(§2) Transport experiments were initiated by adding 0.5 ml of transport buffer Hank’s balanced salt solution (HBSS, Invitrogen, Breda, The Netherlands) containing the test compound, being 0594, 0595, 0596, 0599, 0600 and 0618, dissolved in DMSO (final solvent concentration 0.5 % DMSO), at concentration of 50 μM, to the apical compartment and 1.5 ml transport buffer to the basolateral compartment. Subsequently, the plate was incubated in a humidified atmosphere with 5 % CO2 at 37 °C. After 15, 30, 60 and 90 min, a sample of 0.2 ml was taken from the basolateral compartment and replaced by an equal volume of transport buffer. At the end of each experiment, a 0.2-ml sample was also taken from the apical compartment. Subsequently, the filters with the BeWo b30 cell layers were washed three times with PBS, cut out of the insert, dissolved in 0.25 ml 65 % (v/v) methanol and sonificated for 15 min in a Bandelin Sonorex RK100 (Berlin, Germany) in order to determine the amount of compound accumulated in the cells. After each experiment, mass balance calculations were performed. In each transport study, amoxicillin and antipyrine were included as control and reference compounds. Amoxicillin transport was included to assess for monolayer integrity since it is a compound known to be transported only to a limited extent across the placenta, whereas antipyrine was included as a control for optimal transport and a reference compound to enable calculation of relative transport rates (Li et al. [2013]). The transport of the six test compounds, as well as the reference compounds amoxicillin and antipyrine, through the permeable membrane of the transwell filter in the absence of BeWo cells was determined as well. […] For each test compound, three independent experiments were performed, with three technical replicates per experiment.
(§3) Samples were analyzed using high-performance liquid chromatography (HPLC) to quantify the amount of test compound in order to determine the transport rate and to perform mass balance calculations. The HPLC system used consisted of a Waters (Milford, MA) 600 controller and a 600 pump, equipped with a photodiode array detector set to record absorption of wavelengths between 200 and 400 nm. A Waters 717 plus autosampler was used for sample injection. The temperature of the autosampler was kept at 7 °C.
(§4) For analysis of all compounds, 50 μl sample was injected to a C18 5 μm reverse-phase column (150 mm × 4.6 mm I.D.) with a guard column (7.5 mm × 4.6 mm I.D.) (Alltech, Bergen op Zoom, The Netherlands). The mobile phase used for analysis of all the test compounds consisted of (A) 0.1 % trifluoroacetic acid in nanopure water and (B) HPLC-grade acetonitrile. Elution was at a flow rate of 0.8 ml/min, starting at 22 % B with a linear increase to 100 % B in 8 min.

For the next data set, the system named is BeWo b30 cell layers. Nature of the data set: in vitro BeWo transport model (placental transfer). The method, then:
as §1, §2, §3, §4

As for `CC1(C)S[C@@H]2[C@H](NC(=O)[C@H](N)c3ccc(O)cc3)C(=O)N2[C@H]1C(=O)O` [Amoxicillin, amoxicillin, reference compound], in data set [1], the apparent permeability (Papp) at 30 min, 50 μM amounted to 6.5 ± 0.2 ×10⁻⁶ cm/s. In addition, the “Intracellular accumulation (% of added amount)” value in the data set with BeWo b30 cell layers (BeWo cells, 50 μM (25 nmol) apical, at 90 min) is 0 % of added amount.
The compound `Cc1cc(=O)n(-c2ccccc2)n1C` [Antipyrine, antipyrine, reference compound] showed an apparent permeability (Papp) at 30 min, 50 μM in data set [1] of 38.9 ± 3 ×10⁻⁶ cm/s. In addition, the “Intracellular accumulation (% of added amount)” value in the data set with BeWo b30 cell layers (human, 90 min, 50 μM) is listed as 0 % of added amount. In addition, in the data set on BeWo b30 cell layers (human, not told, 50 μM), the “Relative Papp value” amounted to 1.00.
